The values below come from patent publication US20050282743A1, “Molecular interactions in cells” (Arbor Vita Corporation, priority 2001, published 2005).

Holding throughout (assay): G' assay (10 uM PL peptide), results of TABLE 7 and TABLE 12
Holding throughout (type): binding

The target in assay [1] is T1, PDZ protein (GST-PDZ fusion) (Homo sapiens, UniProt O00560).
T1 construct: made in house; host or cells: E. coli (DH5alpha, BL21 or JM109)
T1 sequence (O00560 1-298): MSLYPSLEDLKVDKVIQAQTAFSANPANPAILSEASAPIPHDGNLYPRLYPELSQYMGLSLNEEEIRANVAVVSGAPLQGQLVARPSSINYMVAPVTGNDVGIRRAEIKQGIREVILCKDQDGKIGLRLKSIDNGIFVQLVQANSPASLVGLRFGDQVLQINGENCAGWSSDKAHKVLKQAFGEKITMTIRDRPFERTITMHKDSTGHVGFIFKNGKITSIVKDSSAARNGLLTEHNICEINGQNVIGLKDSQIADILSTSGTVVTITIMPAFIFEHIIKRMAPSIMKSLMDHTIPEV
To be noted: PDZ hSyntenin, PDZ Domain 1. The procedure, abridged:
(§1)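 Biotin-PL peptide (N-term label), 10 uM vs GST-PDZ; protein 5 ug/ml by default. A450 nm binned: 1 = 0-1, 2 = 1-2, 3 = 2-3, 4 = 3-4, 5 = >4 on >2 repeats, 0 = no binding.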

Assay [2] concerns the target T2, PDZ protein (GST-PDZ fusion) (Homo sapiens, UniProt P29074).
T2 construct: made in house; host or cells: E. coli (DH5alpha, BL21 or JM109)
T2 sequence (P29074 1-926): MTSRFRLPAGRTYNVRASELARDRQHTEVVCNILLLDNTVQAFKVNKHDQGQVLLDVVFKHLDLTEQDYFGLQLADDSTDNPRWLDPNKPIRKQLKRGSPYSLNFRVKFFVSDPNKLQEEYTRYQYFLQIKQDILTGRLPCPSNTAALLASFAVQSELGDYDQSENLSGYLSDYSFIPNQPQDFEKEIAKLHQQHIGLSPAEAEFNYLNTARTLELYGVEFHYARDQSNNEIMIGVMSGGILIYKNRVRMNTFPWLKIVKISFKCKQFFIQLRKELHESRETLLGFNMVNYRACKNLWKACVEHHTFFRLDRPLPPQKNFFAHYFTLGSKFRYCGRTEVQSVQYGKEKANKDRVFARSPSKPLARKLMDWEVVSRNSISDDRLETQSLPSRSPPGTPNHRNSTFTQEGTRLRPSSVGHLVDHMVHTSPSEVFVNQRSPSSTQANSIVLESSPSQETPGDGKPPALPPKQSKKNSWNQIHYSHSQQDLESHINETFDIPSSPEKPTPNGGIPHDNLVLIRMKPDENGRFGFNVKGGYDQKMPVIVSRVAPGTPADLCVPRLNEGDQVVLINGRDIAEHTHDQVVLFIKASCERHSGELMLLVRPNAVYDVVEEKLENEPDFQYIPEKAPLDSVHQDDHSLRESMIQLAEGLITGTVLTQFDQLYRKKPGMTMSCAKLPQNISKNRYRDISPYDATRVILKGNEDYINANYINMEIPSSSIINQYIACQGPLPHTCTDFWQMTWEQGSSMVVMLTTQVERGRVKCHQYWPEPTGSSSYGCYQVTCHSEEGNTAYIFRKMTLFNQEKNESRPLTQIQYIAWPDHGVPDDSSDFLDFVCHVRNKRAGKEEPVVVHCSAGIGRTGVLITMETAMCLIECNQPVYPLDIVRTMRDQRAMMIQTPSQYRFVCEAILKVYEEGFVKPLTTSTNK
To be noted: PDZ PTN-4, PDZ Domain 1. The method in brief: as §1

Assay [3] has as its target T3, PDZ protein (GST-PDZ fusion) (Homo sapiens, UniProt P55196).
T3 construct: made in house; host or cells: E. coli (DH5alpha, BL21 or JM109)
To be noted: PDZ AF6, PDZ Domain 1. The method in brief: as §1

Ends that are not written are not given here. Peptide text beside a SMILES is read from it. * marks the point of attachment. Biotin = O=C1N[C@H]2[C@H](CS[C@H]2CCCCC(=O)*)N1

T3 sequence (P55196 whole entry, the tested form may be a part): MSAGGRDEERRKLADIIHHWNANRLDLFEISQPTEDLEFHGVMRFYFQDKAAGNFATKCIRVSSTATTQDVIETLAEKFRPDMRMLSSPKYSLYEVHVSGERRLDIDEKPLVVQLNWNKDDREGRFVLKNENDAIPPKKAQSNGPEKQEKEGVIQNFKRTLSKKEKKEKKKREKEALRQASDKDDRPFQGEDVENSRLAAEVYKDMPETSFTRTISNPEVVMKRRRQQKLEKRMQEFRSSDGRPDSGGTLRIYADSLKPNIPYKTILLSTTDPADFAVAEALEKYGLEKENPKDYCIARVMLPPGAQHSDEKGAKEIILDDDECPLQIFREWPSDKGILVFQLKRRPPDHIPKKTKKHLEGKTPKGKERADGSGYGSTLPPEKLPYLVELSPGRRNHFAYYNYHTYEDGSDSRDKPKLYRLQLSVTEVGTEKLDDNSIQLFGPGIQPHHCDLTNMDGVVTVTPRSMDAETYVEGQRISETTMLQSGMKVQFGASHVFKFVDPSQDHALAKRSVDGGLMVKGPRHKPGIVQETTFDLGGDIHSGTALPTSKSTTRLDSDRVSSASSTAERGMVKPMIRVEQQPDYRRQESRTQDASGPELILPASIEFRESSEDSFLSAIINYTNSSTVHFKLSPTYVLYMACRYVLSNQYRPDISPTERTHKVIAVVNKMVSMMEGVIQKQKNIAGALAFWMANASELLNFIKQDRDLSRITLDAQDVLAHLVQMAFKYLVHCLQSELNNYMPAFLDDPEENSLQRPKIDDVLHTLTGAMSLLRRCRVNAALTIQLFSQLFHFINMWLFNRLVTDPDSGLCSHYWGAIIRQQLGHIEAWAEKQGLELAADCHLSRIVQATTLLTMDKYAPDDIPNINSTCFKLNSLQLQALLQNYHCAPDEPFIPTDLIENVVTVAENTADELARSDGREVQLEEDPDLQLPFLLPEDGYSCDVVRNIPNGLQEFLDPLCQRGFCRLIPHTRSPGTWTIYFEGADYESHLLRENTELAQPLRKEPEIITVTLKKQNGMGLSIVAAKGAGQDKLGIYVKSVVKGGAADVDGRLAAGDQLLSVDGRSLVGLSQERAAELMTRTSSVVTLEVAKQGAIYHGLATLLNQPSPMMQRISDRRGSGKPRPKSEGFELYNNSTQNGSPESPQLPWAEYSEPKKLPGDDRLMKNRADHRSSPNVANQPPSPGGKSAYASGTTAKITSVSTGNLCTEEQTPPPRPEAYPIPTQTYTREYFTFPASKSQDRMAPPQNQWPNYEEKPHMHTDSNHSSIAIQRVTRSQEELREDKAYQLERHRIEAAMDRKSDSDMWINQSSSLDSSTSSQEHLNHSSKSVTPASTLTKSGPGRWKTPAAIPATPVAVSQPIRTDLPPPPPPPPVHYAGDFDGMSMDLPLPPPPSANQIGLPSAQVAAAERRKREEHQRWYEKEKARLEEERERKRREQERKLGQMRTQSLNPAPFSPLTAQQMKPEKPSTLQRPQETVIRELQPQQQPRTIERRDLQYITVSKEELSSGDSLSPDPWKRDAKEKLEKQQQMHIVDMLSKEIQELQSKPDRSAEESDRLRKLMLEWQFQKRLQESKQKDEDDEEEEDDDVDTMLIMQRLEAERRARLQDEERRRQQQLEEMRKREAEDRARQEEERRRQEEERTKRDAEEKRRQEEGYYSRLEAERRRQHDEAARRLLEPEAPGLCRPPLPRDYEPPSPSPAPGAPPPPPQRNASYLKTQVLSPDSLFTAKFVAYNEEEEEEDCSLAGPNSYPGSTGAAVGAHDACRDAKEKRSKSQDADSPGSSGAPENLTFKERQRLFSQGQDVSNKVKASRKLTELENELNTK

Regarding `CC[C@H](C)[C@H](NC(=O)[C@H](Cc1ccc(O)cc1)NC(=O)[C@@H](NC(=O)[C@@H]1CCCN1C(=O)[C@H](CCC(N)=O)NC(=O)[C@H](CCC(=O)O)NC(=O)[C@H](CCC(N)=O)NC(=O)[C@H](C)NC(=O)[C@@H](NC(=O)[C@H](CC(C)C)NC(=O)[C@H](CC(C)C)NC(=O)[C@H](CCCNC(=N)N)NC(=O)[C@H](Cc1ccc(O)cc1)NC(=O)[C@H](CCSC)NC(=O)[C@H](C)NC(=O)[C@H](C)NC(=O)[C@@H]1CCCN1C(=O)[C@H](CCSC)NC(=O)[C@@H](NC(=O)[C@H](CCCCN)NC(=O)CCCC[C@@H]1SC[C@@H]2NC(=O)N[C@@H]21)[C@@H](C)O)[C@@H](C)O)C(C)C)C(=O)O` [MINT-1] (Biotin-KTMPAAMYRLLTAQEQPVYI-OH; C-terminus assumed), the Classification in assay [1] was 3 (A450 nm 2-3). For the molecule `CC[C@H](C)[C@H](NC(=O)[C@H](CCC(N)=O)NC(=O)CCCC[C@@H]1SC[C@@H]2NC(=O)N[C@@H]21)C(=O)N[C@@H](CO)C(=O)N1CCC[C@H]1C(=O)NCC(=O)NCC(=O)N[C@@H](CC(C)C)C(=O)N[C@@H](CCC(=O)O)C(=O)N1CCC[C@H]1C(=O)N1CCC[C@H]1C(=O)N[C@@H](CO)C(=O)N[C@@H](CCC(=O)O)C(=O)N[C@@H](CCCCN)C(=O)N[C@@H](Cc1c[nH]cn1)C(=O)N[C@@H](Cc1ccccc1)C(=O)N[C@@H](CCCNC(=N)N)C(=O)N[C@@H](CCC(=O)O)C(=O)N[C@H](C(=O)N[C@@H](CCC(=O)O)C(=O)N[C@H](C(=O)O)C(C)C)[C@@H](C)O` [Tax], in assay [2], the Classification was 2 (A450 nm 1-2). As to TQGFPGPATWRRISSLESEV, in assay [2], the Classification is listed as 2 (A450 nm 1-2). Regarding “QATSRNGHSARQHVVADTEL (Biotin-QATSRNGHSARQHVVADTEL) [CD34]”, in assay [2], the Classification was 1 (A450 nm 0-1).

As to `CSCC[C@H](NC(=O)[C@H](C)NC(=O)[C@H](CCCNC(=N)N)NC(=O)CNC(=O)[C@@H](NC(=O)[C@H](Cc1c[nH]c2ccccc12)NC(=O)[C@H](CCCNC(=N)N)NC(=O)CNC(=O)CCCC[C@@H]1SC[C@@H]2NC(=O)N[C@@H]21)[C@@H](C)O)C(=O)N[C@@H](CO)C(=O)N[C@@H](C)C(=O)N[C@@H](Cc1c[nH]c2ccccc12)C(=O)N[C@@H](CCCCN)C(=O)N1CCC[C@H]1C(=O)N[C@H](C(=O)N[C@@H](CCCNC(=N)N)C(=O)N[C@@H](CCCNC(=N)N)C(=O)N[C@@H](CCC(=O)O)C(=O)N[C@H](C(=O)N[C@@H](CCC(=O)O)C(=O)N[C@H](C(=O)O)C(C)C)[C@@H](C)O)[C@@H](C)O` [HPV E6 #35 (modified)] (Biotin-GRWTGRAMSAWKPTRRETEV-OH; C-terminus assumed), the Classification in assay [2] is listed as 4 (A450 nm 3-4).

“KTMPAATYRLLTGQEQPVYL (Biotin-KTMPAATYRLLTGQEQPVYL) [MINT-3]”: the Classification in assay [3] is 1 (A450 nm 0-1). In the case of “GPVPGEPAKPKTSAHHATFV (Biotin-GPVPGEPAKPKTSAHHATFV)”, the Classification in assay [3] is 1 (A450 nm 0-1). With `CC[C@H](C)[C@H](NC(=O)[C@H](Cc1ccc(O)cc1)NC(=O)[C@H](CC(C)C)NC(=O)[C@H](CCC(N)=O)NC(=O)[C@H](Cc1c[nH]cn1)NC(=O)[C@H](CO)NC(=O)[C@H](C)NC(=O)[C@H](CC(C)C)NC(=O)[C@@H](NC(=O)[C@H](CC(=O)O)NC(=O)[C@H](CCSC)NC(=O)[C@H](Cc1ccccc1)NC(=O)[C@@H]1CCCN1C(=O)[C@H](CCCNC(=N)N)NC(=O)[C@@H](NC(=O)[C@H](CC(C)C)NC(=O)[C@H](CC(N)=O)NC(=O)[C@H](CC(=O)O)NC(=O)[C@@H](NC(=O)[C@H](CO)NC(=O)CCCC[C@@H]1SC[C@@H]2NC(=O)N[C@@H]21)[C@@H](C)O)C(C)C)[C@@H](C)O)C(=O)O` [presenilin-2] (Biotin-STDNLVRPFMDTLASHQLYI-OH; C-terminus assumed), in assay [3], the Classification is on record as 3 (A450 nm 2-3). Take `CC(C)C[C@H](NC(=O)[C@H](C)NC(=O)[C@@H](NC(=O)[C@H](CCC(=O)O)NC(=O)[C@H](CCCNC(=N)N)NC(=O)[C@H](CCCNC(=N)N)NC(=O)CNC(=O)[C@H](CCC(N)=O)NC(=O)[C@H](CC(C)C)NC(=O)[C@H](CCCNC(=N)N)NC(=O)CNC(=O)CNC(=O)[C@H](CCCNC(=N)N)NC(=O)[C@H](C)NC(=O)[C@H](CO)NC(=O)[C@H](CCCNC(=N)N)NC(=O)CNC(=O)CNC(=O)[C@H](C)NC(=O)[C@H](C)NC(=O)CCCC[C@@H]1SC[C@@H]2NC(=O)N[C@@H]21)[C@@H](C)O)C(=O)O` [HPV E6 33 (modified)] (Biotin-AAGGRSARGGRLQGRRETAL-OH; C-terminus assumed): in assay [2], the Classification is given as 1 (A450 nm 0-1). For “KTMPAAMFRLLTGQETPLYI (Biotin-KTMPAAMFRLLTGQETPLYI) [MINT-2]”, the Classification in assay [1] is on record as 2 (A450 nm 1-2).

Turning to “ELLQFCRTPNPALKNGQYWV (Biotin-ELLQFCRTPNPALKNGQYWV)”, the Classification in assay [1] was 2 (A450 nm 1-2); in assay [3], 5 (A450 nm of 4 more than 2× repeated).
